Measured values published in patent US12544395B2, “Combination compositions comprising a beta-lactamase inhibitor and uses thereof” (priority 2018, dated 2026).
Converted amounts (≈) assume the structure as drawn. “And” between values parts separate entries of the source, which are not always exact repeats. Identical values can stand only once.

Experiments:
[1] = system: OXA-48-expressing Enterobacteriaceae (n = 39); test: Broth microdilution MIC, ceftibuten/Compound 2 vs IV comparators
[2] = system: KPC-expressing Enterobacteriaceae (n = 77); test: organism not typed; type: cell-based; conditions: for Number of strains at MIC value 0.5 mg/L / Number of strains at MIC value 1 mg/L / Number of strains at MIC value 2 mg/L / Number of strains at MIC value 4 mg/L / Number of strains at MIC value 8 mg/L / Number of strains at MIC value 16 mg/L / Number of strains at MIC value […] / Number of strains at MIC value ≤0.06 mg/L / Number of strains at MIC value ≥32 mg/L: KPC-expressing (n = 77); for MIC50 / MIC90: iv
[3] = system: AmpC/CMY-expressing Enterobacteriaceae (n = 44); test: Broth microdilution MIC, ceftibuten/Compound 2 vs IV comparators; type: cell-based; conditions: for Number of strains at MIC value 0.5 mg/L / Number of strains at MIC value 1 mg/L / Number of strains at MIC value 2 mg/L / Number of strains at MIC value 4 mg/L / Number of strains at MIC value 8 mg/L / Number of strains at MIC value 16 mg/L / Number of strains at MIC value […] / Number of strains at MIC value ≤0.06 mg/L / Number of strains at MIC value ≥32 mg/L: AmpC/CMY-expressing (n = 44); for MIC50 / MIC90: iv
[4] = system: ESBL-expressing Enterobacteriaceae (n = 33); test: as above; type: cell-based; conditions: for Number of strains at MIC value 0.5 mg/L / Number of strains at MIC value 1 mg/L / Number of strains at MIC value 2 mg/L / Number of strains at MIC value 4 mg/L / Number of strains at MIC value 8 mg/L / Number of strains at MIC value 16 mg/L / Number of strains at MIC value […] / Number of strains at MIC value ≤0.06 mg/L / Number of strains at MIC value ≥32 mg/L: ESBL-expressing (n = 33); for MIC50 / MIC90: iv
[5] = Metabolic stability in intestinal S9; type: in vitro ADME; conditions: Human, test conc. 3 μM
[6] = Metabolic stability in plasma; type: in vitro ADME, beagle dog; conditions: Dog, test conc. 3 μM
[7] = Metabolic stability in plasma; type: in vitro ADME, CD-1 mouse; conditions: CD-1, plasma; Mouse; test conc. 3 μM
[8] = Metabolic stability in intestinal S9; type: in vitro ADME, beagle dog; conditions: Dog, test conc. 3 μM
[9] = Metabolic stability in plasma; type: in vitro ADME; conditions: Human, test conc. 3 μM
[10] = Metabolic stability in intestinal S9; type: in vitro ADME, Sprague-Dawley rat; conditions: Rat, test conc. 3 μM
[11] = Metabolic stability in plasma; type: in vitro ADME; conditions: Sprague-Dawley, Rat, test conc. 3 μM
[12] = Metabolic stability in intestinal S9; type: in vitro ADME, cynomolgus monkey; conditions: Monkey, test conc. 3 μM
[13] = Metabolic stability in liver S9; type: in vitro ADME, CD-1 mouse; conditions: Mouse, test conc. 3 μM
[14] = Metabolic stability in liver S9; type: in vitro ADME, beagle dog; conditions: Dog, test conc. 3 μM
[15] = Metabolic stability in plasma; type: in vitro ADME; conditions: cynomolgus, Monkey, test conc. 3 μM
[16] = Metabolic stability in liver S9; type: in vitro ADME; conditions: Human, test conc. 3 μM
[17] = Metabolic stability in intestinal S9; type: in vitro ADME, CD-1 mouse; conditions: Mouse, test conc. 3 μM
[18] = Metabolic stability in liver S9; type: in vitro ADME, cynomolgus monkey; conditions: Monkey, test conc. 3 μM
[19] = Metabolic stability in liver S9; type: in vitro ADME, Sprague-Dawley rat; conditions: Rat, test conc. 3 μM
[20] = Oral dosing formulation in Solutol HS-15:Water, solution/emulsion stability; type: physicochemical
Experimental: (§1) This study included dose concentrations ranging from 2-120 mg/mL.
as §1

[21] = Single ascending dose pharmacokinetics, Solutol HS-15:Water (10:90); type: in vivo, Beagle dogs; conditions: Compound 1 300 mg/kg PO, non-fasted
Experimental: The dosing formulation for Compound 1 was prepared in Solutol HS-15:Water (10:90 v/v) which provided dosing formulations of Compound 1 as a solution (homogeneous and chemically-stable up to a concentration of 30 mg/mL) and as a emulsion (physically- and chemically-stable at concentrations ranging from 31-100 mg/mL) with dose concentrations ranging from 2-60 mg/mL.

[22] = Solutol HS-15:Water (10:90 v/v)
[23] = Solutol HS-15:Water (20:80 v/v)

## C[C@@H](O)[C@H]1C(=O)N2C(C(=O)O)=C(S[C@@H]3CN[C@H](C(=O)N(C)C)C3)[C@H](C)[C@H]12 [Meropenem]
[1]
  MIC50: 2 µg/mL (≈ 5.22 µM)
  MIC90: 8 µg/mL (≈ 20.9 µM)
[2]
  Number of strains at MIC value 0.5 mg/L: 1
  Number of strains at MIC value 1 mg/L: 0
  Number of strains at MIC value 2 mg/L: 3
  Number of strains at MIC value 4 mg/L: 4
  Number of strains at MIC value 8 mg/L: 11
  Number of strains at MIC value 16 mg/L: 13
  Number of strains at MIC value […]: 0
  Number of strains at MIC value ≤0.06 mg/L: 1
  Number of strains at MIC value ≥32 mg/L: 44
  MIC50: ≥ 32 µg/mL
  MIC90: ≥ 32 µg/mL
[3]
  Number of strains at MIC value 0.5 mg/L: 2
  Number of strains at MIC value 1 mg/L: 1
  Number of strains at MIC value 2 mg/L: 0
  Number of strains at MIC value 4 mg/L: 3
  Number of strains at MIC value 8 mg/L: 0
  Number of strains at MIC value 16 mg/L: 0
  Number of strains at MIC value […]: 2
  Number of strains at MIC value ≤0.06 mg/L: 34
  Number of strains at MIC value ≥32 mg/L: 0
  MIC50: ≤ 0.06 µg/mL
  MIC90: 0.5 µg/mL (≈ 1.3 µM)
[4]
  Number of strains at MIC value 0.5 mg/L: 0
  Number of strains at MIC value 1 mg/L: 1
  Number of strains at MIC value 2 mg/L: 1
  Number of strains at MIC value 4 mg/L: 0
  Number of strains at MIC value 8 mg/L: 1
  Number of strains at MIC value 16 mg/L: 0
  Number of strains at MIC value […]: 1 and 0
  Number of strains at MIC value ≤0.06 mg/L: 29
  Number of strains at MIC value ≥32 mg/L: 0
  MIC50: ≤ 0.06 µg/mL
  MIC90: 0.125 µg/mL (≈ 0.326 µM)

## COCC1=C(C(=O)OC(C)OC(=O)OC(C)C)N2C(=O)[C@@H](NC(=O)/C(=N\OC)c3csc(N)n3)[C@H]2SC1 (some centres unmarked) [Cefpodoxime proxetil]
[5]; intestinal S9
  half-life at 3 μM: 35.6 min
[6]; beagle, plasma
  half-life at 3 μM: 26.2 min
[7]
  half-life at 3 μM: 0.6 min
[8]; beagle, intestinal S9
  half-life at 3 μM: > 120 min
[9]; plasma
  half-life at 3 μM: 4.8 min
[10]; Sprague-Dawley, intestinal S9
  half-life at 3 μM: 7.4 min
[11]
  half-life at 3 μM: 0.8 min
[12]; cynomolgus, intestinal S9
  half-life at 3 μM: 16.9 min
[13]; CD-1, liver S9
  half-life at 3 μM: 2.4 min
[14]; beagle, liver S9
  half-life at 3 μM: 4.7 min
[15]
  half-life at 3 μM: 12.4 min
[16]; liver S9
  half-life at 3 μM: 3.4 min
[17]; CD-1, intestinal S9
  half-life at 3 μM: 2.5 min
[18]; cynomolgus, liver S9
  half-life at 3 μM: 4.3 min
[19]; Sprague-Dawley, liver S9
  half-life at 3 μM: 10.2 min

## CCC(=O)N[C@H]1Cc2cccc(C(=O)OCOC(=O)C(CC)CC)c2OB1O [Compound 1, ((2-Ethylbutanoyl)oxy)methyl (R)-2-hydroxy-3-propionamido-3,4-dihydro-2H-benzo[e][1,2]oxaborinine-8-carboxylate]
[5]
  Intestinal S9 Half-life: 2.9 min
[6]
  Plasma Half-life: 43.9 min
[7]
  half-life at 3 μM: 4.6 min
[20]; [22]
  homogeneous and chemically-stable solution up to a concentration: ≤ 30 mg/mL
  physically- and chemically-stable emulsion at concentrations: 31 to 100 mg/mL
[20]; [23]
  homogeneous and chemically-stable solution up to a concentration: ≤ 60 mg/mL
  physically- and chemically-stable emulsion at concentrations: 61 to 200 mg/mL
[8]
  Intestinal S9 Half-life: 49.0 min
[9]
  Plasma Half-life: 10.7 min
[10]
  Intestinal S9 Half-life: 3.9 min
[21]
  dogs exhibiting emesis: 3 of 4
[11]
  half-life at 3 μM: 1.6 min
[12]
  Intestinal S9 Half-life: 11.2 min
[13]
  Liver S9 Half-life: 1.2 min
[14]
  Liver S9 Half-life: 0.5 min
[15]
  half-life at 3 μM: 22 min
[16]
  Liver S9 Half-life: 1.0 min
[17]
  Intestinal S9 Half-life: 1.1 min
[18]
  Liver S9 Half-life: 0.8 min
[19]
  Liver S9 Half-life: 2.3 min

## CN(C)c1cc(NC(=O)CNC(C)(C)C)c(O)c2c1C[C@H]1C[C@H]3[C@H](N(C)C)C(O)=C(C(N)=O)C(=O)[C@@]3(O)C(O)=C1C2=O [Tigecycline]
[1]
  MIC50: 0.5 µg/mL (≈ 0.854 µM)
  MIC90: 2 µg/mL (≈ 3.41 µM)
[2]
  Number of strains at MIC value 0.5 mg/L: 19
  Number of strains at MIC value 1 mg/L: 34
  Number of strains at MIC value 2 mg/L: 15
  Number of strains at MIC value 4 mg/L: 5
  Number of strains at MIC value 8 mg/L: 0
  Number of strains at MIC value 16 mg/L: 0
  Number of strains at MIC value […]: 0 and 4
  Number of strains at MIC value ≤0.06 mg/L: 0
  Number of strains at MIC value ≥32 mg/L: 0
  MIC50: 1 µg/mL (≈ 1.71 µM)
  MIC90: 2 µg/mL (≈ 3.41 µM)
[3]
  Number of strains at MIC value 0.5 mg/L: 8
  Number of strains at MIC value 1 mg/L: 10
  Number of strains at MIC value 2 mg/L: 10
  Number of strains at MIC value 4 mg/L: 4
  Number of strains at MIC value 8 mg/L: 2
  Number of strains at MIC value 16 mg/L: 0
  Number of strains at MIC value […]: 4 and 6
  Number of strains at MIC value ≤0.06 mg/L: 0
  Number of strains at MIC value ≥32 mg/L: 0
  MIC50: 1 µg/mL (≈ 1.71 µM)
  MIC90: 4 µg/mL (≈ 6.83 µM)
[4]
  Number of strains at MIC value 0.5 mg/L: 11
  Number of strains at MIC value 1 mg/L: 3
  Number of strains at MIC value 2 mg/L: 3
  Number of strains at MIC value 4 mg/L: 2
  Number of strains at MIC value 8 mg/L: 0
  Number of strains at MIC value 16 mg/L: 0
  Number of strains at MIC value […]: 4 and 10
  Number of strains at MIC value ≤0.06 mg/L: 0
  Number of strains at MIC value ≥32 mg/L: 0
  MIC50: 0.5 µg/mL (≈ 0.854 µM)
  MIC90: 2 µg/mL (≈ 3.41 µM)

## NC[C@H]1O[C@H](O[C@H]2[C@H](O)[C@@H](O[C@H]3O[C@H](CO)[C@@H](O)[C@H](N)[C@H]3O)[C@H](N)C[C@@H]2N)[C@H](N)C[C@@H]1O [Tobramycin]
[1]
  MIC50: 16 µg/mL (≈ 34.2 µM)
  MIC90: ≥ 32 µg/mL
[2]
  Number of strains at MIC value 0.5 mg/L: 3
  Number of strains at MIC value 1 mg/L: 0
  Number of strains at MIC value 2 mg/L: 2
  Number of strains at MIC value 4 mg/L: 0
  Number of strains at MIC value 8 mg/L: 3
  Number of strains at MIC value 16 mg/L: 3
  Number of strains at MIC value […]: 0 and 1
  Number of strains at MIC value ≤0.06 mg/L: 0
  Number of strains at MIC value ≥32 mg/L: 65
  MIC50: ≥ 32 µg/mL
  MIC90: ≥ 32 µg/mL
[3]
  Number of strains at MIC value 0.5 mg/L: 2
  Number of strains at MIC value 1 mg/L: 2
  Number of strains at MIC value 2 mg/L: 0
  Number of strains at MIC value 4 mg/L: 3
  Number of strains at MIC value 8 mg/L: 3
  Number of strains at MIC value 16 mg/L: 6
  Number of strains at MIC value […]: 0
  Number of strains at MIC value ≤0.06 mg/L: 0
  Number of strains at MIC value ≥32 mg/L: 28
  MIC50: ≥ 32 µg/mL
  MIC90: ≥ 32 µg/mL
[4]
  Number of strains at MIC value 0.5 mg/L: 3
  Number of strains at MIC value 1 mg/L: 5
  Number of strains at MIC value 2 mg/L: 2
  Number of strains at MIC value 4 mg/L: 1
  Number of strains at MIC value 8 mg/L: 1
  Number of strains at MIC value 16 mg/L: 4
  Number of strains at MIC value […]: 0
  Number of strains at MIC value ≤0.06 mg/L: 0
  Number of strains at MIC value ≥32 mg/L: 17
  MIC50: ≥ 32 µg/mL
  MIC90: ≥ 32 µg/mL
